56 compounds from US20260193236A1 (Protego Biopharma, Inc., priority 2022, published 2026) can be followed below.

The assay deals with IRE1-XBP1s (XBP1-RLuc splicing reporter in HEK293 T-REx cells). In words: IRE1-XBP1s activation assay (XBP1-RLuc splicing reporter, HEK293 T-REx cells, luminescence relative to thapsigargin). Format: cell-based. Particulars: 18 h, read-out: Activity (IRE1-XBP1s activation, luminescence as % signal relative to thapsigargin, % Tg). How it is done: IRE1-XBP1s activation Assay: HEK293 T-REx cells stably expressing the XBP1-RLuc splicing reporter were treated with an IRE1-XBP1s activator provided herein (10 μM) in the presence or absence of the IRE1 active site inhibitor 4μ8C (32 μM) for 18 h. Luminescence was shown as the percentage signal relative to thapsigargin (Tg) (500 nM, 18 h).

The mark [1] stands for this setting: compound 10 μM, HEK293 T-REx XBP1-RLuc reporter cells, relative to thapsigargin (Tg) 500 nM.

Where a name gives a salt, the structure may show the parent alone. Read-outs that look alike come from different tables or passages of the source.

With `Cc1ccc(OCCN(C)C(=O)Cn2cc(NC(=O)CCNc3c(F)cncc3C3CC3)cn2)cc1` [Compound 250, 3-((3-cyclopropyl-5-fluoropyridin-4-yl)amino)-N-(1-(2-(methyl(2-(p-tolyloxy)ethyl)amino)-2-oxoethyl)-1H-pyrazol-4-yl)propanamide], the activation at 10 µM under setting [1] is above 50%.
The same measure, in the same setting: with `Cc1ccc(OCCN(C)C(=O)Cn2cc(NC(=O)CCNc3cccc(Cl)n3)cn2)cc1` [Compound 156] the figure was above 50%.
Turning to `Cc1ccc(OCCN(C)C(=O)Cn2cc(NC(=O)C(C)(C)C(=O)Nc3ncc(F)cn3)cn2)cc1` [Compound 258, N1-(5-fluoropyrimidin-2-yl)-2,2-dimethyl-N3-(1-(2-(methyl(2-(p-tolyloxy)ethyl)amino)-2-oxoethyl)-1H-pyrazol-4-yl)malonamide], the activation at 10 µM is below 30%.
On the same count and under the same terms, under `C#CC1CCCCC1OCCC(=O)Nc1cnn(CC(=O)N(C)CCOc2ccc(C)cc2)c1` (centres unmarked) [Compound 2, 3-((2-ethynylcyclohexyl)oxy)-N-(1-(2-(methyl(2-(p-tolyloxy)ethyl)amino)-2-oxoethyl)-1H-pyrazol-4-yl)propanamide hydrochloride] stands above 50%.
In the case of `CCc1ccc(OCCN(C)C(=O)Cn2cc(NC(=O)CCOC3CCCCC3)cn2)cc1` [Compound 5], the activation at 10 µM under setting [1] lay within 30 to 50%.
For `C=Cc1cncc(F)c1NCCC(=O)Nc1cnn(CC(=O)N(C)CCOc2ccc(C)cc2)c1` [Compound 251], the activation at 10 µM under setting [1] was above 50%.
Same read-out and setting: under `Cc1ccc(OCCN(C)C(=O)Cn2cc(NC(=O)CCNc3ncc(C)cc3C)cn2)cc1` [Compound 195] stands below 30%; under `Cc1ccc(OCCN(C)C(=O)Cn2cc(NC(=O)CCNc3cnc(C#N)c(F)c3)cn2)cc1` [Compound 177], 30 to 50%; under `Cc1ncccc1NCCC(=O)Nc1cnn(CC(=O)N(C)CCOc2ccc(C(F)(F)F)cc2)c1` [Compound 204], below 30%.
Still for that read-out and setting: under `Cc1ccc(OCCN(C)C(=O)Cn2cc(NC(=O)/C=C/Oc3cccnc3N)cn2)cc1` [Compound 237] stands below 30%; under `Cc1ccc(OCCN(C)C(=O)Cn2cc(NC(=O)CCNc3nccnc3Cl)cn2)cc1` [Compound 147], above 50%; under `Cc1ccc(OCCC(=O)Nc2cnn(CC(=O)N(C)CCOc3ncn(C)n3)c2)c(F)c1` [Compound 90], below 30%.
The same measure, in the same setting: with `Cc1ccc(OCCN(C)C(=O)Cn2cc(NC(=O)CCOc3c(F)cccc3Cl)cn2)cc1` [Compound 57] the figure was 30 to 50%.
`Cc1ccc(OCCN(C)C(=O)Cn2cc(NC(=O)CCNc3ccc(C#N)cn3)cn2)cc1` [Compound 157]: the activation at 10 µM under setting [1] was below 30%.
On the same count and under the same terms, with `Cc1ccc(OCCN(C)C(=O)Cn2cc(NC(=O)CNC(=O)c3ncc(F)cn3)cn2)cc1` [Compound 249] the figure was below 30%; with `Cc1ccc(OCCN(C)C(=O)Cn2cc(NC(=O)CCNc3cccc(C#N)n3)cn2)cc1` [Compound 132], above 50%; with `Cc1ccc(OCCN(C)C(=O)Cn2cc(NC(=O)CCNc3ncc(-c4ncc(C)o4)cn3)cn2)cc1` [Compound 294, N-(1-(2-(methyl (2-(p-tolyloxy)ethyl)amino)-2-oxoethyl)-1H-pyrazol-4-yl)-3-((5-(5-methyloxazol-2-yl)pyrimidin-2-yl)amino)propanamide], below 30%.
On the same count and under the same terms, with `Cc1ccc(OCCN(C)C(=O)Cn2cc(NC(=O)CCNc3c(F)cnc(C)c3C3CC3)cn2)cc1` [Compound 214] the figure was above 50%.
For `Cc1ccc(OCCN(C)C(=O)Cn2cc(NC(=O)CCNc3ccc(F)nc3C)cn2)cn1` [Compound 243], under setting [1], the activation at 10 µM was below 30%.
The same measure, in the same setting: under `Cc1ccc(OCCN(C)C(=O)Cn2cc(NC(=O)CCNc3ccnc(O)n3)cn2)cc1` [Compound 260, 3-((2-hydroxypyrimidin-4-yl)amino)-N-(1-(2-(methyl(2-(p-tolyloxy)ethyl)amino)-2-oxoethyl)-1H-pyrazol-4-yl)propanamide] stands below 30%; under `COc1ccc(OCCC(=O)Nc2cnn(CC(=O)N(C)CCOc3ccc(C)cc3)c2)cc1` [Compound 42], 30 to 50%; under `CN(CCOc1ccc(C(F)(F)F)cn1)C(=O)Cn1cc(NC(=O)CCOc2ccnc(N)c2)cn1` [Compound 95], below 30%.
The same measure, in the same setting: with `COc1cccc(OCCC(=O)Nc2cnn(CC(=O)N(C)CCOc3ccc(C)cc3)c2)c1` [Compound 36] the figure was above 50%; with `Cc1ccc(OCCN(C)C(=O)Cn2cc(NC(=O)CCOc3c(C)ccnc3N)cn2)cc1` [Compound 17], below 30%.
On to `COc1ccc(OCCN(C)C(=O)Cn2cc(NC(=O)CCNc3cc(C)ncc3C)cn2)cc1` [Compound 168], for which the activation at 10 µM under setting [1] is 30 to 50%.
The same measure, in the same setting: under `CC(C)c1cncc(F)c1NCCC(=O)Nc1cnn(CC(=O)N(C)CCOc2ccc(C(F)(F)F)cn2)c1` [Compound 269] stands above 50%.
As for `Cc1ccc(OCCN(C)C(=O)Cn2cc(NC(=O)CCNc3c(F)cncc3C(C)C)cn2)cc1` [Compound 231], the activation at 10 µM under setting [1] was above 50%.
Consider `Cc1ccc(OCCN(C)C(=O)Cn2cc(NC(=O)CCNc3ccnc(C)c3)cn2)cc1` [Compound 164, N-(1-(2-(methyl(2-(p-tolyloxy)ethyl)amino)-2-oxoethyl)-1H-pyrazol-4-yl)-3-((2-methylpyridin-4-yl)amino)propanamide], for which the activation at 10 µM under setting [1] lay within 30 to 50%.
Turning to `COc1cnccc1NCCC(=O)Nc1cnn(CC(=O)N(C)CCOc2ccc(C)cc2)c1` [Compound 198], the activation at 10 µM under setting [1] is below 30%.
Same read-out and setting: with `Cc1ccc(OCCN(C)C(=O)Cn2cc(NC(=O)CCOc3ccnc(NC(=O)OC(C)(C)C)c3)cn2)cc1` [Compound 101] the figure was above 50%; with `Cc1ccc(OCCN(C)C(=O)Cn2cc(NC(=O)CCNc3ncccc3C#N)cn2)cc1` [Compound 141], below 30%.
Same read-out and setting: under `Cc1ccc(OCCN(C)C(=O)Cn2cc(NC(=O)CCNc3cncc(N)n3)cn2)cc1` [Compound 122] stands below 30%.
Take `Cc1ccc(OCCN(C)C(=O)Cn2cc(NC(=O)CCNc3cncc(C(F)(F)F)n3)cn2)cc1` [Compound 185]: the activation at 10 µM under setting [1] is below 30%.
The same measure, in the same setting: under `CN(CCOc1ccc(C#N)cc1)C(=O)Cn1cc(NC(=O)CCOc2ccccc2)cn1` [Compound 25] stands below 30%; under `Cc1ccc(OCCN(C)C(=O)Cn2cc(NC(=O)CCNc3ncc(F)cc3C)cn2)cc1` [Compound 206], above 50%.
For the compound `Cc1ccc(OCCN(C)C(=O)Cn2cc(NC(=O)CCNc3cccnc3C(F)(F)F)cn2)cc1` [Compound 186], under setting [1], the activation at 10 µM was above 50%.
Regarding `Cc1ccc(OCCN(C)C(=O)Cn2cc(NC(=O)CCNc3ccc(C)cn3)cn2)cc1` [Compound 126], the activation at 10 µM under setting [1] was below 30%.
Take `CC(C)c1cncc(F)c1OCCC(=O)Nc1cnn(CC(=O)N(C)CCOc2cnc(C(F)(F)F)cn2)c1` [Compound 278]: under setting [1], the activation at 10 µM was above 50%.
Still for that read-out and setting: with `CN(CCOc1cccnc1)C(=O)Cn1cc(NC(=O)CCOc2ccccc2F)cn1` [Compound 41] the figure was below 30%; with `Cc1ccc(OCCN(C)C(=O)Cn2cc(NC(=O)CCNc3ccncc3F)cn2)cc1` [Compound 192], above 50%.
Same read-out and setting: under `COc1cccc(NCCC(=O)Nc2cnn(CC(=O)N(C)CCOc3ccc(C)cc3)c2)n1` [Compound 188] stands below 30%.
Consider `Cc1ccc(OCCC(=O)Nc2cnn(CC(=O)N(C)CCOc3ccc(C)c(Cl)c3)c2)c(F)c1` [Compound 76], for which the activation at 10 µM under setting [1] was below 30%.
Same read-out and setting: with `Cc1ccc(OCCN(C)C(=O)Cn2cc(NC(=O)CCOc3cccc(C)n3)cn2)cc1` [Compound 105] the figure was above 50%; with `Cc1ccc(OCCN(C)C(=O)Cn2cc(NC(=O)CCOc3ncccc3[N+](=O)[O-])cn2)cc1` [Compound 113], above 50%; with `Cc1ccc(OCCN(C)C(=O)Cn2cc(NC(=O)CCOc3ccc(C)nc3C)cn2)cc1` [Compound 11], 30 to 50%.
Same read-out and setting: with `Cc1ccc(OCCN(C)C(=O)Cn2cc(NC(=O)CCOc3ccc(C(F)(F)F)cc3)cn2)cc1` [Compound 44] the figure was below 30%; with `Cc1ccc(OCCN(C)C(=O)Cn2cc(NC(=O)CCNc3ccnc(Br)c3)cn2)cc1` [Compound 135], 30 to 50%; with `Cc1ccc(OCCN(C)C(=O)Cn2cc(NC(=O)CCNc3c(F)cncc3Cl)cn2)cc1` [Compound 150], 30 to 50%.
Still for that read-out and setting: with `Cc1ccc(OCCN(C)C(=O)Cn2cc(NC(=O)COc3cc4ccccn4n3)cn2)cc1` [Compound 289] the figure was above 50%.
Consider `Cc1ccc(OCCN(C)C(=O)Cn2cc(NC(=O)CCNc3ccc(F)nc3C)cn2)cc1` [Compound 196], for which the activation at 10 µM under setting [1] was above 50%.
As for `Cc1ccc(OCCN(C)C(=O)Cn2cc(NC(=O)CCNc3cc(C)ncc3F)cn2)cc1` [Compound 207], under setting [1], the activation at 10 µM is below 30%.
Same read-out and setting: under `CC(C)c1cncc(F)c1OCCC(=O)Nc1cnn(CC(=O)N(C)CCOc2ccc(C(F)(F)F)nc2)c1` [Compound 277] stands above 50%; under `Cc1ccc(OCCN(C)C(=O)Cn2cc(NC(=O)CC(C)(C)Nc3nccc(F)n3)cn2)cc1` [Compound 218, 3-((4-fluoropyrimidin-2-yl)amino)-3-methyl-N-(1-(2-(methyl(2-(p-tolyloxy)ethyl)amino)-2-oxoethyl)-1H-pyrazol-4-yl)butanamide], above 50%.
Same read-out and setting: with `Cc1ccc(OCCN(C)C(=O)Cn2cc(NC(=O)CCNc3cccc(C)n3)cn2)cc1` [Compound 160] the figure was 30 to 50%; with `Cc1ccc(OCCN(C)C(=O)Cn2cc(NC(=O)CCNc3cc(Cl)nc4nccn34)cn2)cc1` [Compound 226], below 30%; with `Cc1ccc(OCCN(C)C(=O)Cn2cc(NC(=O)CCNc3cncc(C)c3)cn2)cc1` [Compound 180], 30 to 50%.
